Measurements reported in patent US20230295197A1, “STAT5 and STAT6 Degraders and Uses Thereof” (REGENTS OF THE UNIVERSITY OF MICHICAN, priority 2022, published 2023).
Read-outs that look alike come from different tables or passages of the source.

Molecular target: T1, STAT6 (Homo sapiens, UniProt P42226)
T1 construct: endogenous in cells; host or cells: MOLM-16, KU-812, SKNO1, MB231, L1236
T1 sequence (P42226 1-847): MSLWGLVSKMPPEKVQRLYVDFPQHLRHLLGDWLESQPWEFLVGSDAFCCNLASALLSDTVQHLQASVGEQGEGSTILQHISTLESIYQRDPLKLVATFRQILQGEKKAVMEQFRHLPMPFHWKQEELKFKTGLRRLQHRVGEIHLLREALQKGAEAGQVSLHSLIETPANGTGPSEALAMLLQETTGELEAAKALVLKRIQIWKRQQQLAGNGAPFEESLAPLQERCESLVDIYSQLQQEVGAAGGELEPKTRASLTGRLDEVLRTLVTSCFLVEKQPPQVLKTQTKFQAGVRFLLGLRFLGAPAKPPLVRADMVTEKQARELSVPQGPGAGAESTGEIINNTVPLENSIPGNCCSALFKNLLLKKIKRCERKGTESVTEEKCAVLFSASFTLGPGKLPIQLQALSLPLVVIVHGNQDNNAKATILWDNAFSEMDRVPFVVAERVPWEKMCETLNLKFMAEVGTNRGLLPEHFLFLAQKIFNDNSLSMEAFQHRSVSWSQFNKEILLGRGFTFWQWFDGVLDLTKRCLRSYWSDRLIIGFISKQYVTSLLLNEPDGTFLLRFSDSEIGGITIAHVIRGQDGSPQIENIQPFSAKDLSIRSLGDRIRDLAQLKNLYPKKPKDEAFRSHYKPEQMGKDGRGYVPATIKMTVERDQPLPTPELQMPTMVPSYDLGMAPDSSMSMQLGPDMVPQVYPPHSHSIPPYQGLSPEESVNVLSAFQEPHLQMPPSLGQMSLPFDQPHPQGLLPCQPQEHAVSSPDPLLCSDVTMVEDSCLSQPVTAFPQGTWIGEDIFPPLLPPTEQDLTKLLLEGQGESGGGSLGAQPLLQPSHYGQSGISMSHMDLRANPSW
Assay: Immunoblotting (Western blot) analysis of STAT6 degradation efficiency of degraders in treated cells
Assay type: cell-based
How it was run: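 Protein levels of STAT5 and STAT6 were assessed in cells cultured at 37 °C in 10% FBS medium after compound exposure, by quantitative fluorescent Western blotting normalised to equal loading and referenced to GAPDH.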

[1] = MOLM-16 cells, class symbols, read-out: DC50 S6 MOLM-16
[2] = L1236 cells, read-out: DC50 S6 L1236

| Structure (SMILES) | DC50 [1] [µM] | DC50 [2] [µM] |
| --- | --- | --- |
| CC(C)(C)[C@H](NC(=O)c1cc2cc(C(F)(F)P(=O)(O)O)ccc2s1)C(=O)N1C[C@@H](OCC(=O)NCCCC#Cc2ccc3c(c2)C(=O)N(C2CCC(=O)NC2=O)C3=O)C[C@H]1C(=O)N1CCO[C@H](c2ccccc2)C1 (stereo partly drawn) [Compound 484, ((2-(((2S)-1-((2S,4S)-4-(2-((5-(2-(2,6-dioxopiperidin-3-yl)-1,3-dioxoisoindolin-5-yl)pent-4-yn-1-yl)amino)-2-oxoethoxy)-2-((R)-2-phenylmorpholine-4-carbonyl)pyrrolidin-1-yl)-3,3-dimethyl-1-oxobutan-2-yl)carbamoyl)benzo[b]thiophen-5-yl)difluoromethyl)phosphonic acid] | 1 to 10 |  |
| CC(C)(C)c1ccc(C[C@H](NC(=O)c2cc3cc(C(F)(F)P(=O)(O)O)ccc3s2)C(=O)N2C[C@@H](OCCCCCCC#Cc3cccc4c3CN(C3CCC(=O)NC3=O)C4=O)C[C@H]2C(=O)N2CCO[C@H](c3ccccc3)C2)cc1 (stereo partly drawn) [Compound 589, ((2-(((2S)-3-(4-(tert-butyl)phenyl)-1-((2S,4S)-4-((8-(2-(2,6-dioxopiperidin-3-yl)-1-oxoisoindolin-4-yl)oct-7-yn-1-yl)oxy)-2-((R)-2-phenylmorpholine-4-carbonyl)pyrrolidin-1-yl)-1-oxopropan-2-yl)carbamoyl)benzo[b]thiophen-5-yl)difluoromethyl)phosphonic acid] | 1 to 10 |  |
| Cc1ncsc1-c1ccc([C@H](C)NC(=O)[C@@H]2C[C@@H](O)CN2C(=O)[C@@H](NC(=O)CNC(=O)COc2ccc3c(c2)CN(C(=O)[C@@H](NC(=O)c2cc4cc(C(F)(F)P(=O)(O)O)ccc4s2)C(C)(C)C)[C@H](C(=O)N2CCC[C@H](c4ccccc4)C2)C3)C(C)(C)C)cc1 [Compound 470, (difluoro(2-(((S)-1-((S)-7-(2-((2-(((S)-1-((2S,4R)-4-hydroxy-2-(((S)-1-(4-(4-methylthiazol-5-yl)phenyl)ethyl)carbamoyl)pyrrolidin-1-yl)-3,3-dimethyl-1-oxobutan-2-yl)amino)-2-oxoethyl)amino)-2-oxoethoxy)-3-((R)-3-phenylpiperidine-1-carbonyl)-3,4-dihydroisoquinolin-2(1H)-yl)-3,3-dimethyl-1-oxobutan-2-yl)carbamoyl)benzo[b]thiophen-5-yl)methyl)phosphonic acid] | > 10 |  |
| CC(C)(C)[C@H](NC(=O)c1cc2cc(C(F)(F)P(=O)(O)O)ccc2s1)C(=O)N1CCN(C(=O)CC(=O)NCCCC#Cc2ccc3c(c2)C(=O)N(C2CCC(=O)NC2=O)C3=O)C[C@H]1C(=O)N1CCO[C@H](c2ccccc2)C1 (stereo partly drawn) [Compound 512, ((2-(((25)-1-((2S)-4-(3-((5-(2-(2,6-dioxopiperidin-3-yl)-1,3-dioxoisoindolin-5-yl)pent-4-yn-1-yl)amino)-3-oxopropanoyl)-2-((R)-2-phenylmorpholine-4-carbonyl)piperazin-1-yl)-3,3-dimethyl-1-oxobutan-2-yl)carbamoyl)benzo[b]thiophen-5-yl)difluoromethyl)phosphonic acid] | 0.1 to 1 |  |
| Cc1ncsc1-c1ccc([C@H](C)NC(=O)[C@@H]2C[C@@H](O)CN2C(=O)[C@@H](NC(=O)CCCCCCCCCNC(=O)CC(=O)N2CCN(C(=O)[C@@H](NC(=O)c3cc4cc(C(F)(F)P(=O)(O)O)ccc4s3)C(C)(C)C)[C@H](C(=O)N3CCO[C@H](c4ccccc4)C3)C2)C(C)(C)C)cc1 [Compound 451, (difluoro(2-(((S)-1-((S)-4-(3-((10-(((S)-1-((2S,4R)-4-hydroxy-2-(((S)-1-(4-(4-methylthiazol-5-yl)phenyl)ethyl)carbamoyl)pyrrolidin-1-yl)-3,3-dimethyl-1-oxobutan-2-yl)amino)-10-oxodecyl)amino)-3-oxopropanoyl)-2-((R)-2-phenylmorpholine-4-carbonyl)piperazin-1-yl)-3,3-dimethyl-1-oxobutan-2-yl)carbamoyl)benzo[b]thiophen-5-yl)methyl)phosphonic acid] | > 10 | > 10 |
| CC(C)(C)[C@H](NC(=O)c1cc2cc(C(F)(F)P(=O)(O)O)ccc2s1)C(=O)N1CCN(C(=O)CC(=O)NCCC#Cc2cccc3c2C(=O)N(C2CCC(=O)NC2=O)C3=O)C[C@H]1C(=O)N1CCC[C@H](c2ccccc2)C1 (stereo partly drawn) [Compound 523, ((2-(((2S)-1-((2S)-4-(3-((4-(2-(2,6-dioxopiperidin-3-yl)-1,3-dioxoisoindolin-4-yl)but-3-yn-1-yl)amino)-3-oxopropanoyl)-2-((R)-3-phenylpiperidine-1-carbonyl)piperazin-1-yl)-3,3-dimethyl-1-oxobutan-2-yl)carbamoyl)benzo[b]thiophen-5-yl)difluoromethyl)phosphonic acid] | > 10 |  |
| Cc1ncsc1-c1ccc([C@H](C)NC(=O)[C@@H]2C[C@@H](O)CN2C(=O)[C@@H](NC(=O)CCCCCNC(=O)CO[C@H]2C[C@@H](C(=O)N3CCC[C@H](c4ccccc4)C3)N(C(=O)[C@@H](NC(=O)c3cc4cc(C(F)(F)P(=O)(O)O)ccc4s3)C(C)(C)C)C2)C(C)(C)C)cc1 [Compound 438, (difluoro(2-(((S)-1-((2S,4S)-4-(2-((6-(((S)-1-((2S,4R)-4-hydroxy-2-(((S)-1-(4-(4-methylthiazol-5-yl)phenyl)ethyl)carbamoyl)pyrrolidin-1-yl)-3,3-dimethyl-1-oxobutan-2-yl)amino)-6-oxohexyl)amino)-2-oxoethoxy)-2-((R)-3-phenylpiperidine-1-carbonyl)pyrrolidin-1-yl)-3,3-dimethyl-1-oxobutan-2-yl)carbamoyl)benzo[b]thiophen-5-yl)methyl)phosphonic acid] | > 10 | > 10 |
| CC(C)(C)[C@H](NC(=O)c1cc2cc(C(F)(F)P(=O)(O)O)ccc2s1)C(=O)N1C[C@@H](OCC(=O)NCCCCCC#Cc2ccc3c(c2)C(=O)N(C2CCC(=O)NC2=O)C3=O)C[C@H]1C(=O)N1CCO[C@H](c2ccccc2)C1 (stereo partly drawn) [Compound 488, ((2-(((2S)-1-((2S,4S)-4-(2-((7-(2-(2,6-dioxopiperidin-3-yl)-1,3-dioxoisoindolin-5-yl)hept-6-yn-1-yl)amino)-2-oxoethoxy)-2-((R)-2-phenylmorpholine-4-carbonyl)pyrrolidin-1-yl)-3,3-dimethyl-1-oxobutan-2-yl)carbamoyl)benzo[b]thiophen-5-yl)difluoromethyl)phosphonic acid] | > 10 |  |
| CC(C)(C)[C@H](NC(=O)c1cc2cc(C(F)(F)P(=O)(O)O)ccc2s1)C(=O)N1C[C@@H](OCCCCCCC#Cc2cccc3c2CN(C2CCC(=O)NC2=O)C3=O)C[C@H]1C(=O)N1CCS(=O)(=O)C(c2ccccc2)C1 (stereo partly drawn) [Compound 607, ((2-(((2S)-1-((2S,4S)-2-(1,1-dioxido-2-phenylthiomorpholine-4-carbonyl)-4-((8-(2-(2,6-dioxopiperidin-3-yl)-1-oxoisoindolin-4-yl)oct-7-yn-1-yl)oxy)pyrrolidin-1-yl)-3,3-dimethyl-1-oxobutan-2-yl)carbamoyl)benzo[b]thiophen-5-yl)difluoromethyl)phosphonic acid] | < 0.1 |  |
